This is an account of results in ChEMBL document CHEMBL5143508, “Design, synthesis and biological evaluation of novel o-aminobenzamide derivatives as potential anti-gastric cancer agents in vitro and in vivo” (Eur J Med Chem, 2022).

Series [1] deals with HGC-27. Description: Induction of apoptosis in human HGC-27 cells assessed as viable cells at 0.5 uM incubated for 48 hrs by annexin V FITC/propidium iodide staining based flow cytometry (reference value: 93.0 %). The settings on record: read-out: Activity. Format: functional.
The subject of series [2] is HGC-27. The series is described as follows: Induction of apoptosis in human HGC-27 cells assessed as necrotic cells at 2 uM incubated for 48 hrs by annexin V FITC/propidium iodide staining based flow cytometry (reference value: 1.24 %). Format: functional.
The subject of series [3] is HGC-27. Description: Induction of apoptosis in human HGC-27 cells assessed as early apoptotic cells at 8 uM incubated for 48 hrs by annexin V FITC/propidium iodide staining based flow cytometry (reference value: 0.66 %). Format: functional.
Series [4] concerns HGC-27. Description: Induction of apoptosis in human HGC-27 cells assessed as late apoptotic cells at 8 uM incubated for 48 hrs by annexin V FITC/propidium iodide staining based flow cytometry (reference value: 5.14 %). Format: functional.
Series [5] relates to MGC-803. The series is described as follows: Induction of apoptosis in human MGC-803 cells assessed as early apoptotic cells at 2.5 uM incubated for 48 hrs by annexin V FITC/propidium iodide staining based flow cytometry (reference value: 0.42 %). Format: functional.
Series [6] relates to MGC-803. Description: Induction of apoptosis in human MGC-803 cells assessed as late apoptotic cells at 2.5 uM incubated for 48 hrs by annexin V FITC/propidium iodide staining based flow cytometry (reference value: 4.07 %). Format: functional.
In series [7] the test system is MGC-803. The series is described as follows: Induction of apoptosis in human MGC-803 cells assessed as necrotic cells at 2.5 uM incubated for 48 hrs by annexin V FITC/propidium iodide staining based flow cytometry (reference value: 1.06 %). Format: functional.
In series [8] the test system is HGC-27. The series is described as follows: Induction of cell cycle arrest in human HGC-27 cells assessed as reduction in accumulation of cells at G2/M phase at 0.5 to 8 uM incubated for 24 hrs by PI staining based flow cytometry analysis. Format: functional. Conditions: dose 0.5-8 µM.
Series [9] concerns HGC-27. Description: Induction of cell cycle arrest in human HGC-27 cells assessed as upregulation of p21 expression at 0.5 to 8 uM incubated for 48 hrs by Western blot analysis. Format: functional, cell-based. Conditions: dose 0.5-8 µM.
Series [10] concerns MGC-803. The series is described as follows: cells. Format: functional, cell-based. Conditions: Homo sapiens, MGC-803, 72 h.
Description: Cytotoxicity against human MGC-803 cells assessed as inhibition of cell growth incubated for 72 hrs by MTT assay
A short description of series [11]: Acute toxicity in Kunming mouse assessed as mouse survival at 1000 mg/kg, po measured after 14 days. Format: organism-based. Conditions: in vivo, 336 h, time 14 day.
Series [12] relates to HGC-27. Description: Induction of apoptosis in human HGC-27 cells assessed as viable cells at 0.1 uM incubated for 48 hrs by annexin V FITC/propidium iodide staining based flow cytometry (reference value: 93.0 %). Format: functional. Conditions: read-out: Activity.
Series [13] concerns HGC-27. The series is described as follows: Induction of apoptosis in human HGC-27 cells assessed as early apoptotic cells at 0.1 uM incubated for 48 hrs by annexin V FITC/propidium iodide staining based flow cytometry (reference value: 0.66 %). Format: functional.
In series [14] the test system is HGC-27. The series is described as follows: Induction of apoptosis in human HGC-27 cells assessed as necrotic cells at 0.1 uM incubated for 48 hrs by annexin V FITC/propidium iodide staining based flow cytometry (reference value: 1.24 %). Format: functional.
Series [15] concerns HGC-27. Description: Induction of apoptosis in human HGC-27 cells assessed as viable cells at 0.4 uM incubated for 48 hrs by annexin V FITC/propidium iodide staining based flow cytometry (reference value: 93.0 %). Conditions: read-out: Activity. Format: functional.
In series [16] the test system is HGC-27. Description: Induction of apoptosis in human HGC-27 cells assessed as necrotic cells at 0.4 uM incubated for 48 hrs by annexin V FITC/propidium iodide staining based flow cytometry (reference value: 1.24 %). Format: functional.
For series [17], the system named is HGC-27. Description: Induction of apoptosis in human HGC-27 cells assessed as viable cells at 1.6 uM incubated for 48 hrs by annexin V FITC/propidium iodide staining based flow cytometry (reference value: 93.0 %). Format: functional. The settings on record: read-out: Activity.
Series [18] relates to HGC-27. Description: Induction of apoptosis in human HGC-27 cells assessed as early apoptotic cells at 1.6 uM incubated for 48 hrs by annexin V FITC/propidium iodide staining based flow cytometry (reference value: 0.66 %). Format: functional.
Series [19] concerns MGC-803. Description: Induction of apoptosis in human MGC-803 cells assessed as late apoptotic cells at 20 uM incubated for 48 hrs by annexin V FITC/propidium iodide staining based flow cytometry (reference value: 4.07 %). Format: functional.
For series [20], the system named is HGC-27. Description: Induction of cell cycle arrest in human HGC-27 cells assessed as reduction in accumulation of cells at G0/G1 phase at 0.1 to 1.6 uM incubated for 24 hrs by PI staining based flow cytometry analysis. Format: functional. Conditions: dose 0.1-1.6 µM.
For series [21], the system named is HGC-27. Description: Antitumor activity against human HGC-27 cells xenografted in BALB/c mouse assessed as tumor growth inhibition at 150 mg/kg, po bid administered for 19 days. Format: functional. The settings on record: HGC-27, 456 h, time 19 day, read-out: TGI.
Series [22] can be described thus: Toxicity in BALB/c mouse xenografted with human HGC-27 cells assessed as body weight loss at 75 to 150 mg/kg, po bid administered for 19 days and measured every other day. Format: organism-based. Conditions: in vivo, 456 h, dose 75-150 mg/kg, time 19 day.
A short description of series [23]: Toxicity in BALB/c mouse xenografted with human HGC-27 cells assessed as granulocyte level at 150 mg/kg, po bid for 19 days. Format: organism-based. Conditions: in vivo, 456 h, time 19 day.
A short description of series [24]: Toxicity in BALB/c mouse xenografted with human HGC-27 cells assessed as red blood cell distribution width at 150 mg/kg, po bid for 19 days. Format: organism-based. The settings on record: in vivo, 456 h, time 19 day.
Series [25] can be described thus: Toxicity in BALB/c mouse xenografted with human HGC-27 cells assessed as platelet distribution width at 150 mg/kg, po bid for 19 days. Format: organism-based. The settings on record: in vivo, 456 h, time 19 day.
A short description of series [26]: Toxicity in BALB/c mouse xenografted with human HGC-27 cells assessed as granulocyte level at 75 mg/kg, po bid for 19 days. Format: organism-based. Conditions: in vivo, 456 h, time 19 day.
Series [27] can be described thus: Toxicity in BALB/c mouse xenografted with human HGC-27 cells assessed as red blood cell distribution width at 75 mg/kg, po bid for 19 days. The settings on record: in vivo, 456 h, time 19 day. Format: organism-based.
Series [28] is described as follows: Toxicity in BALB/c mouse xenografted with human HGC-27 cells assessed as platelet level at 75 mg/kg, po bid for 19 days. Conditions: in vivo, 456 h, time 19 day. Format: organism-based.
Series [29] has as its system HGC-27. Description: Induction of apoptosis in human HGC-27 cells assessed as upregulation in cleaved caspase-3 expression at 0.1 to 1.6 uM incubated for 48 hrs by Western blot analysis. The settings on record: dose 0.1-1.6 µM. Format: functional, cell-based.
Series [30] concerns HGC-27. Description: Induction of apoptosis in human HGC-27 cells assessed as upregulation in cleaved caspase-9 expression at 0.1 to 1.6 uM incubated for 48 hrs by Western blot analysis. Format: functional, cell-based. Conditions: dose 0.1-1.6 µM.
Series [31] has as its system HGC-27. The series is described as follows: In vivo induction of apoptosis in human HGC-27 cells xenografted in BALB/c mouse assessed as increase in cleaved caspase-3 expression at 75 to 150 mg/kg , po bid administered for 19 days and measured by immunohistochemical analysis. Format: functional, organism-based. Conditions: dose 75-150 mg/kg, time 19.0 day.
Series [32] deals with HGC-27. Description: In vivo induction of apoptosis in human HGC-27 cells xenografted in BALB/c mouse assessed as increase in cleaved caspase-9 expression at 75 to 150 mg/kg , po bid administered for 19 days and measured by immunohistochemical analysis. Format: functional, organism-based. The settings on record: dose 75-150 mg/kg, time 19.0 day.
A short description of series [33]: in vitro. Conditions: human, GES1 cells.
Description: Cytotoxicity against human GES1 cells assessed as inhibition of cell growth incubated for 72 hrs by MTT assay
A short description of series [34]: in vitro. Conditions: human, WI-38 cells.
Description: Cytotoxicity against human WI-38 cells assessed as inhibition of cell growth incubated for 72 hrs by MTT assay

“And” between values parts separate entries of the source, which are not always exact repeats. Identical values can stand only once. The source made the active and inactive calls. The calls are words filed in the database; no cut-off is given here. A value given as a limit tells only on which side of the number the result lay.

As to `O=C(NCc1ccc(NC(=O)c2ccccc2N2CCCC2)cc1)OCc1cccnc1`, the viability at 0.5 µM in series [1] is 79.1%. For the same compound, the Activity in series [2] is 12.1%; in [3], 3.68%; in series [4] it was 49.1%; in [5] it was 0.85%; in [6] it was 14.6%; in series [7] it was 4.32%. Moreover, the outcome in [8] and in [9] was Active.

Take `O=C(NCc1ccc(NC(=O)c2cc(F)ccc2N2CCCC2)cc1)OCc1cccnc1`: the IC50 in [10] was 10.7 µM. The Activity entry was “Non-Toxic” in series [11]; 1.43% in [13]; 0.86% in series [14]; 5.43% in series [16]; 0.31% in series [18]; 19.8% in [19]. The Activity entry in [22] is “Non-Toxic”; in series [23], 72.9 10^9/L and 90.67%; in [24], 15.33%; in series [25], 17.45; in series [26], 91.4%; in series [27], 24.4%. Besides, the Activity in series [28] is recorded as 1057.33 10^9/L. Moreover, in series [12], the viability at 0.1 µM is 83.5%. Moreover, the viability at 0.4 µM in series [15] was determined as 70.7%. For the same compound, the viability at 1.6 µM in [17] worked out at 13.4%. For the same compound, the result in series [20], in [29], in series [30], in series [31] and in series [32] was Active. Besides, in [21], the inhibition in vivo at 150 mg/kg is 68.9%. Further, the figures for the IC50 at 72 h in series [33] and in series [34] were 90.2 µM and above 100 µM, respectively.
